One assay concerns the target MOR (Homo sapiens, UniProt P35372). The conditions noted are these: cited from earlier work.
Another assay concerns healthy humans. The conditions noted are these: cited from earlier work.
In assay [1] the test system is rats. Particulars: cited from earlier work.
Assay [2] relates to mice. Particulars: 0.5-2 mg/kg i.p.; cited from earlier work.
The target in a further assay is DOR (Homo sapiens, UniProt P41143). Particulars: cited from earlier work.
Another assay relates to Rhesus monkeys. The conditions noted are these: cited from earlier work.
Assay [3] relates to rats. The conditions noted are these: 1.0-3.0 mg/kg i.p.; cited from earlier work.
Assay [4] deals with male Sprague Dawley rats. The assay is classed as in vivo, rat. On the procedure: The spontaneous righting reflex: Before and at a series of set time points following each bolus injection, the animal was placed on its back and righting time measured. Righting normally occurs under 15 seconds. Whenever the animal was unable to right itself, it was considered that the spontaneous righting reflex had been lost and unconsciousness induced.
Duration of unconsciousness: The time lapse since the loss of the spontaneous righting reflex until its recovery was recorded and considered a measurement of the overall duration of unconsciousness.

The subject of assay [5] is male Sprague Dawley rats. It is filed as in vivo, rat. As to the method: Decreases in spontaneous locomotor and/or exploratory activity: Immediately after administration of each bolus injection, the animal was assessed for any changes in spontaneous locomotor and/or exploratory activity. […] If the spontaneous righting reflex (see here below) had not been lost after dosing but sedation was observed, the animal was monitored at regular intervals to assess the duration of the induced sedation.
The source holds these as a separate data set.

Assay [6] relates to rats. The conditions noted are these: 10 mg/kg i.p.; cited from earlier work.
Assay [7] deals with mice. Particulars: cited from earlier work.
Another assay concerns monkeys. Particulars: drug-discrimination study; cited from earlier work.
The next assay has as its target KOR (Homo sapiens, UniProt P41145). Particulars: cited from earlier work.
Assay [8] has as its system rats. The conditions noted are these: 0.25-2 mg/kg i.p.; cited from earlier work.

Read-outs that look alike come from different tables or passages of the source.

This is an account of results in patent US20210186927A1, “COMBINATION PRODUCT FOR THE INDUCTION AND/OR MAINTENANCE OF GENERAL ANESTHESIA” (priority 2018, published 2021).

Sequence of KOR (P41145 whole entry): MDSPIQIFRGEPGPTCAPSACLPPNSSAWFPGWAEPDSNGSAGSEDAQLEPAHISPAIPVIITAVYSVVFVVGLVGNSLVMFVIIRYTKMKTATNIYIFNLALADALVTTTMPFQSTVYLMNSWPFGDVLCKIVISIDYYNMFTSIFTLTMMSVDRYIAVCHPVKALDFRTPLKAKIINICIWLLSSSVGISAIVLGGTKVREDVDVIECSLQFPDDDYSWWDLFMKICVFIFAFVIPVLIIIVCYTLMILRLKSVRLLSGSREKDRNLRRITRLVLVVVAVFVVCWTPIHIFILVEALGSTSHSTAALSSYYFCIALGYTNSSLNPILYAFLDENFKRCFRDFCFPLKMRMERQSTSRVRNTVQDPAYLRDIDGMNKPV
Sequence of DOR (P41143 whole entry): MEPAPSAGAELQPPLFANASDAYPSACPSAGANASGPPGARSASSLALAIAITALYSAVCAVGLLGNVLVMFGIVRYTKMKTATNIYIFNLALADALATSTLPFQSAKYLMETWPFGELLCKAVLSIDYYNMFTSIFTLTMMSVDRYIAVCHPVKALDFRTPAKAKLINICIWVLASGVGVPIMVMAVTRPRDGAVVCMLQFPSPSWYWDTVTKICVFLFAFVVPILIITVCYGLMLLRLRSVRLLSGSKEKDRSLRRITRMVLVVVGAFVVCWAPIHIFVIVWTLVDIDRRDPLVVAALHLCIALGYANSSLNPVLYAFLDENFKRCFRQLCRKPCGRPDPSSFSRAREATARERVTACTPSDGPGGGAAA
Sequence of MOR (P35372 whole entry): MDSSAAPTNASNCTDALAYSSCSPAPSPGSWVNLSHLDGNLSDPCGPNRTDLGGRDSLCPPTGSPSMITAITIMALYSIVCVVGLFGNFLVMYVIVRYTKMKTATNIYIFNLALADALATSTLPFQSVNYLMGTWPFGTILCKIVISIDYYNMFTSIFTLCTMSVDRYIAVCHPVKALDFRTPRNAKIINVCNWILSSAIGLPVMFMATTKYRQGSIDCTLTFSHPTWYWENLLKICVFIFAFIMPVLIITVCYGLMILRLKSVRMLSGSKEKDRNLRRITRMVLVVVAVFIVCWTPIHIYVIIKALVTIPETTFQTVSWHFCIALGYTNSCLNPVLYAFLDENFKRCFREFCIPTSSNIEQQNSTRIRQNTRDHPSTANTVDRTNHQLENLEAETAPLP

Turning to `COC(=O)[C@@H]1C[C@H](OC(C)=O)C(=O)[C@H]2[C@@]1(C)CC[C@H]1C(=O)O[C@H](c3ccoc3)C[C@]21C` [SA, Salvinorin A], the “affinity for the MOR” value on MOR is given as “no affinity”. For the same compound, in the assay on healthy humans (acute administration to humans), the “acute effects in humans” value was “intense visual and auditory hallucinations without loss of consciousness”. In addition, the “dose at which the effects are already noticeable” value in the assay with healthy humans (humans) is on record as 0.25 mg. Also, the “psychometric measurements of sedation (PCAG subscale of the Addiction Research Center Inventory)” value with healthy humans (humans) is recorded as “no significant dose-dependent increases”. In addition, in the assay on rats [1] (0.25-2 mg/kg i.p., rats), the “effect on spontaneous locomotor activity” value is “did not affect spontaneous locomotor activity”. The “effect on locomotor activity” value in the assay with rats [1] (0.4 and 0.64 mg/kg subcutaneously, rats) is given as “had no effects”; with rats [1] (repeated daily injections of 2 mg/kg i.p.), “increased locomotor activity”; in the assay with rats [1] (single 2 mg/kg i.p.) it was “no effect”. Also, in the assay with mice [2], the sedation and coordination result is “mild sedation and a loss of coordination”. Further, on DOR, the “affinity for the DOR” value was “no affinity”. Moreover, the sedation entry in the assay with Rhesus monkeys (0.032 mg/kg i.v.) is “sedative effects”; in the assay on Rhesus monkeys (0.032 mg/kg s.c.), “did not lead to overt sedation”; with Rhesus monkeys (i.v., maximum dose of 0.1 mg/kg) it was “sedative effects”; in the assay on male Sprague Dawley rats [5] (SA alone 6.2 mg/kg i.v., Example 2 Rat number 2), “mild sedation”; in the assay with male Sprague Dawley rats [5] (SA alone 6.4 mg/kg i.p., Example 1 Rat number 2), “light sedation”; with male Sprague Dawley rats [5] (SA alone 12.0 mg/kg i.v., Example 2 Rat number 3), “mild sedation”. Also, the sedation result with male Sprague Dawley rats [5] (SA alone 12.9 mg/kg i.p., Example 1 Rat number 3) is given as “slight sedation of longer duration”. In addition, the “changes in response rates” value in the assay on rats [3] was “No significant changes”. For the same compound, the “loss of consciousness or general anesthesia” value (shortened to “loss”) with male Sprague Dawley rats [4] (SA alone 6.2 mg/kg i.v.), in the assay on male Sprague Dawley rats [4] (SA alone 6.4 mg/kg i.p.), with male Sprague Dawley rats [4] (SA alone 12.0 mg/kg i.v.) and with male Sprague Dawley rats [4] (SA alone 12.9 mg/kg i.p.) was “no loss of consciousness or general anesthesia” each time. The “righting time (spontaneous righting reflex)” value (“righting time” below) with male Sprague Dawley rats [4] (SA alone 6.2 mg/kg i.v., 10 minutes after injection) was 8 s; in the assay on male Sprague Dawley rats [4] (SA alone 6.4 mg/kg i.p., 1-40 min after injection), 1 to 2 s; with male Sprague Dawley rats [4] (SA alone 12.0 mg/kg i.v., 5 minutes after injection), 12 s; in the assay on male Sprague Dawley rats [4] (SA alone 12.9 mg/kg i.p., 1-40 min after injection) it was 1 to 2 s. In addition, the “time at which locomotor and exploratory activity were comparable to pre-injection values” in the assay with male Sprague Dawley rats [5] (SA alone 6.2 mg/kg i.v.) and with male Sprague Dawley rats [5] (SA alone 12.0 mg/kg i.v.) was 30 min in each case. The “time at which locomotor and exploratory activity were comparable to baseline” value was determined as 30 min with male Sprague Dawley rats [5] (SA alone 6.4 mg/kg i.p.) and 40 min in the assay with male Sprague Dawley rats [5] (SA alone 12.9 mg/kg i.p.). The antinociceptive effects result with rats [6] is “no effects”; with mice [7] (0.5-4 mg/kg intraperitoneally), “dose-dependent antinociceptive effects”. Further, the analgesic effects result is reported as “active” in the assay with mice [7] (7.5 μg intracerebroventricularly) and “no analgesic effects” in the assay with mice [7] (5 mg/kg i.p.). Also, the “generalization between SA and ketamine” value with monkeys is “did not find that any generalization between the two drugs is applicable”. For the same compound, the “affinity and potency values at the KOR” value at KOR is recorded as “nanomolar range”. At KOR, the “type of activity at the KOR” value was “full agonist”. Further, the “immobility in the forced swimming test” value in the assay on rats [8] is “increased immobility”.

For `Cc1cccc(C(C)c2cnc[nH]2)c1C` (centres unmarked) [medetomidine, Medetomidine, reference compound], in the assay on male Sprague Dawley rats [4] (rat, in vivo), the “loss” value is “did not induce loss of consciousness or general anesthesia” and the “righting time” value was 2 to 3 s. Further, in the assay on male Sprague Dawley rats [5] (rat, in vivo), the sedation entry is listed as “sedative effect”, the sedation lasted until was 30 min and the “time to sedation after the injection” value was determined as 30 s.

Consider `CN1C(=O)CN=C(c2ccccc2)c2cc(Cl)ccc21` [diazepam, Diazepam, reference compound], for which, in the assay with male Sprague Dawley rats [4] (rat, in vivo), the “loss” value is reported as “did not induce loss of consciousness or general anesthesia” and the “righting time” value lay within 2 to 3 s. Besides, in the assay on male Sprague Dawley rats [5] (rat, in vivo), the sedation result is listed as “clear sedation”; the “time of full recovery of spontaneous locomotor and exploratory activity” value was 1 h; the “time of partial recovery of spontaneous locomotor and exploratory activity” value stood at 30 min; the “time to decrease in spontaneous locomotor and exploratory activity” value was 1 min. Further, in the assay with male Sprague Dawley rats [5] (rat, in vivo), the time to sedation entry is reported as “immediately after the end of the injection”.
